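A five-concentration, 48-hour dose response in 96-well plates underlies each endpoint, interpolated linearly between surrounding concentrations. Definition used: TGI = concentration required for complete inhibition of growth.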
Assays:
Assay in all cases: inhibition of tumour cell growth, NCI panel, 48 h
[1] = test system: 786-0 renal
[2] = test system: A498 renal
[3] = test system: A549 NSCLC
[4] = test system: ACHN renal
[5] = test system: CAKI-1 renal
[6] = test system: CCRF-CEM leukemia
[7] = test system: COLO 205 colon
[8] = test system: DLD-1 colon
[9] = test system: DMS 114 small cell lung
[10] = test system: DMS 273 small cell lung
[11] = test system: EKVX NSCLC
[12] = test system: HCT-116 colon
[13] = test system: HCT-15 colon
[14] = test system: HL-60(TB) leukemia
[15] = test system: HOP-18 NSCLC
[16] = test system: HOP-62 NSCLC
[17] = test system: HOP-92 NSCLC
[18] = test system: HT29 colon
[19] = test system: IGROV1 ovarian
[20] = test system: K-562 leukemia
[21] = test system: KM12 colon
[22] = test system: KM20L2 colon
[23] = test system: LXFL 529 NSCLC
[24] = test system: M14 melanoma
[25] = test system: M19-MEL melanoma
[26] = test system: MALME-3M melanoma
[27] = test system: MOLT-4 leukemia
[28] = test system: NCI-H226 lung
[29] = test system: NCI-H23 lung
[30] = test system: NCI-H460 lung
[31] = test system: NCI-H522 lung
[32] = test system: OVCAR-3 ovarian
[33] = test system: OVCAR-4 ovarian
[34] = test system: OVCAR-5 ovarian
[35] = test system: OVCAR-8 ovarian
[36] = test system: RPMI-8226 leukemia
[37] = test system: SF-268 CNS
[38] = test system: SF-295 CNS
[39] = test system: SF-539 CNS
[40] = test system: SK-MEL-2 melanoma
[41] = test system: SK-MEL-28 melanoma
[42] = test system: SK-MEL-5 melanoma
[43] = test system: SK-OV-3 ovarian
[44] = test system: SN12C renal
[45] = test system: SNB-19 CNS
[46] = test system: SNB-75 CNS
[47] = test system: SNB-78 CNS
[48] = test system: SR leukemia
[49] = test system: SW-620 colon
[50] = test system: TK-10 renal
[51] = test system: U251 CNS
[52] = test system: UACC-257 melanoma
[53] = test system: UACC-62 melanoma
[54] = test system: UO-31 renal
[55] = test system: BT-549 breast
[56] = test system: DU-145 prostate
[57] = test system: HCC-2998 colon
[58] = test system: HS 578T breast
[59] = test system: LOX IMVI melanoma
[60] = test system: MCF7 breast
[61] = test system: MDA-MB-231 breast
[62] = test system: NCI/ADR-RES ovarian
[63] = test system: PC-3 prostate
[64] = test system: RXF 393 renal
[65] = test system: T-47D breast
[66] = test system: XF 498 CNS

With COC(=O)CSc1n[nH]c(-c2ccccc2)n1 the TGI [1] was greater than 100 µM, the TGI [2] was greater than 100 µM and the TGI [3] was greater than 100 µM. For the same compound, the TGI [4] was greater than 100 µM, the TGI [5] was greater than 100 µM and the TGI [6] was greater than 100 µM. It also gave a TGI [7] greater than 100 µM, a TGI [8] greater than 100 µM and a TGI [9] greater than 100 µM. The TGI [10] was greater than 100 µM, the TGI [11] was greater than 100 µM and the TGI [12] was greater than 100 µM. It also gave a TGI [13] greater than 100 µM, a TGI [14] greater than 100 µM and a TGI [15] greater than 100 µM. For the same compound, the TGI [16] was greater than 100 µM, the TGI [17] was greater than 100 µM and the TGI [18] was greater than 100 µM. The TGI [19] was greater than 100 µM, the TGI [20] was greater than 100 µM and the TGI [21] was greater than 100 µM. The TGI [22] was greater than 100 µM, the TGI [23] was greater than 100 µM and the TGI [24] was greater than 100 µM. For the same compound, the TGI [25] was greater than 100 µM, the TGI [26] was greater than 100 µM and the TGI [27] was 43.2 µM. The TGI [28] was greater than 100 µM, the TGI [29] was greater than 100 µM and the TGI [30] was greater than 100 µM. For the same compound, the TGI [31] was greater than 100 µM, the TGI [32] was greater than 100 µM and the TGI [33] was greater than 100 µM. It also gave a TGI [34] greater than 100 µM, a TGI [35] greater than 100 µM and a TGI [36] greater than 100 µM. The TGI [37] was greater than 100 µM, the TGI [38] was greater than 100 µM and the TGI [39] was greater than 100 µM. For the same compound, the TGI [40] was greater than 100 µM, the TGI [41] was greater than 100 µM and the TGI [42] was greater than 100 µM. It also gave a TGI [43] greater than 100 µM, a TGI [44] greater than 100 µM and a TGI [45] greater than 100 µM. It also gave a TGI [46] greater than 100 µM, a TGI [47] greater than 100 µM and a TGI [48] of 43.5 µM. For the same compound, the TGI [49] was greater than 100 µM, the TGI [50] was greater than 100 µM and the TGI [51] was greater than 100 µM. The TGI [52] was greater than 100 µM, the TGI [53] was greater than 100 µM and the TGI [54] was greater than 100 µM.
In the case of CC[C@@]1(OC(=O)C(N)CCC(=O)O)C(=O)OCc2c1cc1n(c2=O)Cc2cc3ccccc3nc2-1 (stereo partly specified), the TGI [1] is reported as 0.159 µM, the TGI [2] is reported as 0.965 µM and the TGI [3] is reported as 3.37 µM. The TGI [4] was 0.561 µM, the TGI [55] was greater than 100 µM and the TGI [5] was 0.235 µM. For the same compound, the TGI [6] was 0.247 µM, the TGI [7] was 3.03 µM and the TGI [8] was greater than 100 µM. For the same compound, the TGI [9] was 4.42 µM, the TGI [10] was 0.29 µM and the TGI [56] was 0.0504 µM. The TGI [11] was greater than 57.8 µM, the TGI [57] was 3.02 µM and the TGI [12] was greater than 100 µM. For the same compound, the TGI [13] was greater than 100 µM, the TGI [14] was 0.508 µM and the TGI [16] was 0.125 µM. It also gave a TGI [17] of 1.57 µM, a TGI [58] greater than 100 µM and a TGI [18] greater than 100 µM. The TGI [19] was 4.35 µM, the TGI [20] was greater than 100 µM and the TGI [21] was 6.1 µM. The TGI [22] was 5.08 µM, the TGI [59] was 0.482 µM and the TGI [23] was 5.75 µM. The TGI [24] was 1.2 µM, the TGI [25] was 1.49 µM and the TGI [26] was 2.79 µM. The TGI [60] was greater than 100 µM, the TGI [61] was 5.82 µM and the TGI [27] was 0.0992 µM. The TGI [28] was 0.192 µM, the TGI [29] was 0.389 µM and the TGI [31] was 2.03 µM. For the same compound, the TGI [62] was 0.297 µM, the TGI [32] was 2.07 µM and the TGI [33] was greater than 20.8 µM. The TGI [34] was 8.09 µM, the TGI [35] was 10.7 µM and the TGI [63] was greater than 100 µM. The TGI [36] was 2.94 µM, the TGI [64] was 0.757 µM and the TGI [37] was 14.7 µM. The TGI [38] was 0.446 µM, the TGI [39] was 0.0754 µM and the TGI [40] was 3.44 µM. For the same compound, the TGI [41] was 51.8 µM, the TGI [42] was 0.36 µM and the TGI [43] was 3.33 µM. It also gave a TGI [44] of 1.34 µM, a TGI [45] greater than 30.7 µM and a TGI [46] of 1.35 µM. It also gave a TGI [47] greater than 100 µM, a TGI [49] greater than 21.1 µM and a TGI [65] greater than 100 µM. The TGI [50] was greater than 100 µM, the TGI [51] was 1.98 µM and the TGI [52] was 1.63 µM. The TGI [53] was 0.16 µM, the TGI [54] was 0.746 µM and the TGI [66] was 2.04 µM.
For O=[P+](O)c1cccs1, the TGI [2] was greater than 100 µM, the TGI [3] was greater than 100 µM and the TGI [4] was greater than 100 µM. The TGI [5] was greater than 100 µM, the TGI [6] was greater than 100 µM and the TGI [7] was greater than 100 µM. It also gave a TGI [8] greater than 100 µM, a TGI [9] greater than 100 µM and a TGI [10] greater than 100 µM. For the same compound, the TGI [11] was greater than 100 µM, the TGI [12] was greater than 100 µM and the TGI [13] was greater than 100 µM. It also gave a TGI [14] greater than 100 µM, a TGI [15] greater than 100 µM and a TGI [17] greater than 100 µM. The TGI [18] was greater than 100 µM, the TGI [19] was greater than 100 µM and the TGI [20] was greater than 100 µM. It also gave a TGI [22] greater than 100 µM, a TGI [59] greater than 100 µM and a TGI [23] greater than 100 µM. The TGI [24] was greater than 100 µM, the TGI [25] was greater than 100 µM and the TGI [27] was greater than 100 µM. It also gave a TGI [29] greater than 100 µM, a TGI [30] greater than 100 µM and a TGI [31] greater than 100 µM. The TGI [35] was greater than 100 µM, the TGI [36] was greater than 100 µM and the TGI [64] was greater than 100 µM. For the same compound, the TGI [37] was greater than 100 µM, the TGI [38] was greater than 100 µM and the TGI [39] was greater than 100 µM. The TGI [41] was greater than 100 µM, the TGI [42] was greater than 100 µM and the TGI [43] was greater than 100 µM. The TGI [44] was greater than 100 µM, the TGI [45] was greater than 100 µM and the TGI [49] was greater than 100 µM. The TGI [50] was greater than 100 µM, the TGI [51] was greater than 100 µM and the TGI [53] was greater than 100 µM. The TGI [54] was greater than 100 µM and the TGI [66] was greater than 100 µM.
